US20040248897A1, “Substituted N-acylaniline derivatives, the preparation thereof, and their use as pharmaceutical compositions” (Boehringer Ingelheim Pharma GmbH & Co. KG, priority 2001, published 2004)

System: human citrated plasma
Test: aPTT time prolongation in human citrated plasma (Biomatic B10 coagulometer)
Type: biochemical
Settings: effective concentration at which the aPTT time is double compared with the control, 37° C.
Protocol: were investigated for their effect on prolonging the aPTT time as follows:
Materials: plasma, from human citrated blood;
PTT reagent, Boehringer Mannheim (524298);
Calcium solution (0.025 mol/L), Behring Werke, Marburg (ORH 056/57),
Diethylbarbiturate acetate buffer, Behring Werke, Marburg (ORWH 60/61); and
Biomatic B10 coagulometer, Desaga, Wiesloch.
The aPTT time was determined using a Biomatic B10 coagulometer made by Messrs. Desaga.
The test substance was placed in the test tubes prescribed by the manufacturer with 0.1 mL of human citrated plasma and 0.1 mL of PTT reagent. The mixture was incubated for three minutes at 37° C. The clotting reaction was started by the addition of 0.1 mL of calcium solution. The time is measured using the apparatus from the addition of the calcium solution up to the clotting of the mixture. Mixtures to which 0.1 mL of DBA buffer had been added were used as the controls.
According to the definition, a dosage-activity curve was used to determine the effective concentration of the substance at which the aPTT time is double compared with the control.

Compound	aPTT time (ED200 in μM) [µM]
Cc1cc(C(=O)C(C)C)c(C)cc1NC(=O)CNc1ccc(C(=N)N)cc1 [B, 4-[N-(2,5-dimethyl-4-isopropylcarbonylphenylaminocarbonylmethyl)amino]benzamidine]	0.67
Cc1cc(C(=O)N2CCCC2C)c(C)cc1NC(=O)CNc1ccc(C(=N)N)cc1 (centres unmarked) [A, 4-{N-[2,5-dimethyl-4-(2-methylpyrrolidinocarbonyl)phenylaminocarbonylmethyl]-amino}benzamidine]	0.65
